One compound from patent US9578878B2, “Antimicrobial efficacy of an oregano oil and caprylic acid blend” (Kemin Industries, Inc., priority 2014, dated 2017) can be followed below.

One assay concerns A. brasiliensis. The experiment in a line: Zone of inhibition assay. The format is cell-based, Aspergillus brasiliensis. Conditions: 20 μL per 6 mm disk, 72 hrs, n = 3. As to the method:
(§1) For assays to find minimum inhibitory concentrations, all treatments were diluted in 10% DMSO and 0.5% Tween 80 to stabilize the samples.
(§2) Microorganisms Escherichia coli (ATCC #8739), Streptococcus sanguinis (ATCC #BAA-1455), Salmonella enteria subsp. enterica (ex Kauffmann and Edwards) Le Minor and Popoff serovar Typhimurium (ATCC #14028), Staphylococcus aureus (ATCC #6538), Pseudomonas aeruginosa (ATCC #9027), and Candida albicans (ATCC #10231) were obtained from a −80° C. internal stock culture. Aspergillus brasiliensis (ATCC #16404) was obtained from an internal stock solution culture stored at 4° C. E. coli, S. enterica S. aureus, and P. aeruginosa were grown in tryptic soy broth (TSB) and incubated at 37° C. for 24 h. S. sanguinis was grown in brain heart infusion broth (BHI). A. brasiliensis was plated on Sabourand dextrose agar (SDA) and incubated at 25° C. for 5-7 days. C. albicans was grown in Sabourand dextrose broth (SDB) and incubated at 25° C. for 48 h.
(§3) A. brasiliensis was harvested by adding 18 mL sterile saline to the plate and agitating the mold from the agar with a sterile inoculating loop. The inoculum was collected upon agitation. All suspended microbes were diluted with the same type of broth media used to grow each organism until an inoculum in the range of 10^6 CFU/mL was achieved. The inoculum concentration was determined by plate count method. Each strain was identified by plating on the appropriate growth media, E. coli, S. aureus, and P. aeruginosa on tryptic soy agar (Bacto, BD Sciences, Manassas, Va.) and C. albicans and A. brasiliensis on Sabrouand dextrose agar, to ensure there was no contamination of the inoculum.
(§4) A zone of inhibition assay was used for A. brasiliensis and C. albicans. SDA was used as the plated medium. Inocula at 10^5 cfu/ml were prepared and counted using a Petroff-Hausser counting chamber. The diameter of no growth around a 6 mm blank disk after incubation at 25° C. for 72 hrs was compared to the untreated control. 20 μL of treatment was applied to each disk in triplicate. 10% DMSO was used as the control.

The next assay has as its system C. albicans. The experiment in a line: Zone of inhibition assay. The format is cell-based, Candida albicans. The following applies: 20 μL per 6 mm disk, 72 hrs, n = 3. As to the method:
as §1, §2, §3, §4

A further assay has as its system Salmonella enterica. Briefly: Microtiter assay, MIC to inhibit 90% growth. Type of assay: cell-based. The following applies: 24 hours, n = 3. The protocol:
as §1, §2, §3
(§5) Microtiter Assay. A microtiter assay was completed E. coli, S. aureus, P. aeruginosa, S. enteria, S. sanguinis, and C. albicans. Briefly, 10^6 cfu/ml preparations of each organism were made and enumerated using a Petroff-Hausser counting chamber. A 100 μl aliquot of the inoculums was dispensed into microtiter plate wells and a 100 μl aliquot of treatment was dispensed into the same wells. Two separate set of wells were prepared as positive and negative controls, with the positive wells containing 100 μl test organism in growth media and 100 μl sterile phosphate buffer and with the negative control wells containing 100 μl of the same growth media and 100 μl sterile phosphate buffer. The plates were incubated overnight at the appropriate temperature for each organism. A plate reader was used to track the kinetic growth curve using 405 nm and […]. The last time point at 24 hours was averaged and used to determine MIC90. Each treatment was conducted in triplicate wells.

The subject of assay [1] is Candida albicans (ATCC #10231). Briefly: Microtiter assay, MIC to inhibit 90% growth. Conditions: 24 hours, n = 3. Type of assay: cell-based. The protocol:
as §1, §2, §3, §5

Assay [2] has as its system Streptococcus sanguinis (ATCC #BAA-1455). Briefly: Microtiter assay, MIC to inhibit 90% growth. The format is cell-based. Conditions: 24 hours, n = 3. As to the method:
as §1, §2, §3, §5

As for `CCCCCCCC(=O)O` [Caprylic Acid, octanoic acid], the “Inhibition Diameter, A. brasiliensis” value with A. brasiliensis (0.9% treatment), with A. brasiliensis (2.7% treatment) and with A. brasiliensis (4.5% treatment) was 0 mm throughout. For the same compound, the “Inhibition Diameter, C. albicans” value in the assay with C. albicans (0.45% treatment) was 3.5 mm; in the assay with C. albicans (0.9% treatment) it was 4.5 mm; with C. albicans (2.7% treatment), 24.5 mm. Besides, in the assay on Salmonella enterica, the “Minimum Inhibitory Concentration (MIC) to inhibit 90% growth, S. enterica” value amounted to 0.90%. The “Minimum Inhibitory Concentration (MIC) to inhibit 90% growth, C. albicans” value in assay [1] came out at 0.09%. Moreover, the “Minimum Inhibitory Concentration (MIC) to inhibit 90% growth, S. sanguinis” value in assay [2] is on record as 0.09%.
